Measured values from US20240158446A1, “CYCLIC COMPOUND HAVING SELECTIVE INHIBITORY ACTION ON KRAS OVER HRAS AND NRAS” (CHUGAI SEIYAKU KABUSHIKI KAISHA, priority 2021, published 2024).

Key:
[1] = target: GDP-bound KRAS wild-type protein (Homo sapiens, UniProt P01116); assay: Binding to KRAS by surface plasmon resonance (SPR), Single Cycle Kinetics; conditions: SPR, Single Cycle Kinetics, GDP-bound KRAS wild-type protein; read-out: KRAS KD
[2] = target: GDP-bound HRAS wild-type protein (Homo sapiens, UniProt P01112); assay: Binding to HRAS by surface plasmon resonance (SPR), Single Cycle Kinetics; conditions: SPR, GDP-bound HRAS wild-type protein vs GDP-bound KRAS wild-type protein
[3] = target: GDP-bound NRAS wild-type protein (Homo sapiens, UniProt P01111); assay: Binding to NRAS by surface plasmon resonance (SPR), Single Cycle Kinetics; conditions: SPR, GDP-bound NRAS wild-type protein vs GDP-bound KRAS wild-type protein
Chain of GDP-bound NRAS wild-type protein (P01111 whole entry): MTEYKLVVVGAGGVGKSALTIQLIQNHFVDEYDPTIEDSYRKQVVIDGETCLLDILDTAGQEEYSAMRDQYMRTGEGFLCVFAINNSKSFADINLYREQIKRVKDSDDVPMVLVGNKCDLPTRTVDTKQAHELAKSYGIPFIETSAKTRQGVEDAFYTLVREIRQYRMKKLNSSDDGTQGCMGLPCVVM

Chain of GDP-bound HRAS wild-type protein (P01112 whole entry): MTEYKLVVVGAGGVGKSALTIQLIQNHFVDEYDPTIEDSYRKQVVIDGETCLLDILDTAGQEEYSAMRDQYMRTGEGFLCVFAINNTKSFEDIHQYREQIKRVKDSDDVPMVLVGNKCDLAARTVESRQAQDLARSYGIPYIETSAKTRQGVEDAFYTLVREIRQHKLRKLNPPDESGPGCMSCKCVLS
Chain of GDP-bound KRAS wild-type protein (P01116 whole entry): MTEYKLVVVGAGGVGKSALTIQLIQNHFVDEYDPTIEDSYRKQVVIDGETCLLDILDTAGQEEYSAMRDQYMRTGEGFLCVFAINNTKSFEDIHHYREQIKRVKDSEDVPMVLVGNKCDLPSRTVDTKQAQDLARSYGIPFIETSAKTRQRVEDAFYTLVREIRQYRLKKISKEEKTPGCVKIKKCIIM

| SMILES | Kd [1] | HRAS/KRAS (ratio of KD value for HRAS to KD value for KRAS) [2] | NRAS/KRAS (ratio of KD value for NRAS to KD value for KRAS) [3] |
| --- | --- | --- | --- |
| C#CC[C@H]1C(=O)N[C@@H]([C@@H](C)CC)C(=O)N(C)CC(=O)N(C)[C@H]2C/C=C\CCN(C2=O)[C@@H](Cc2ccc(C(F)(F)F)cc2)C(=O)N(C)CC(=O)N[C@@H](CCc2cc(F)c(C(F)(F)F)c(F)c2)C(=O)N2C[C@H](OCC)C[C@H]2C(=O)NC2(CC(C)(C)C2)C(=O)N(C)[C@@H](C2CCCC2)C(=O)N(C)[C@H](C(=O)N(C)CC)CC(=O)N1C [PP2073] | 0.078 nM | A (a compound having 10 or more and less than 20 is denoted as A) | A (a compound having 10 or more and less than 20 is denoted as A) |
| C#CC[C@H]1C(=O)N[C@@H]([C@@H](C)CC)C(=O)N(C)CC(=O)N(C)[C@H]2C/C=C\CCN(C2=O)[C@@H](Cc2ccc(C(F)(F)F)cc2)C(=O)N(C)CC(=O)N[C@@H](CCc2cc(F)c(C(F)(F)F)c(F)c2)C(=O)N2C[C@H](OCC)C[C@H]2C(=O)NC2(CC(C)(C)C2)C(=O)N(C)[C@@H](C2CCCC2)C(=O)N(C)[C@H](C(=O)N(C)CCC)CC(=O)N1C [PP2074] | 0.11 nM | A (a compound having 10 or more and less than 20 is denoted as A) | A (a compound having 10 or more and less than 20 is denoted as A) |
| C#CC[C@H]1C(=O)N[C@@H]([C@@H](C)CC)C(=O)N(C)CC(=O)N(C)[C@H]2C/C=C\CCN(C2=O)[C@@H](Cc2ccc(C(F)(F)F)cc2)C(=O)N(C)CC(=O)N[C@@H](CCc2cc(F)c(C(F)(F)F)c(F)c2)C(=O)N2C[C@@H](C)C[C@H]2C(=O)NC2(CC(C)(C)C2)C(=O)N(C)[C@@H](C2CCCC2)C(=O)N(C)[C@H](C(=O)N(C)CC)CC(=O)N1C [PP2075] | 0.22 nM | A (a compound having 10 or more and less than 20 is denoted as A) | A (a compound having 10 or more and less than 20 is denoted as A) |
| C#CC[C@H]1C(=O)N[C@@H]([C@@H](C)CC)C(=O)N(C)CC(=O)N(C)[C@H]2C/C=C\CCN(C2=O)[C@@H](Cc2ccc(C(F)(F)F)cc2)C(=O)N(C)CC(=O)N[C@@H](CCc2cc(F)c(C(F)(F)F)c(F)c2)C(=O)N2C[C@@H](C)C[C@H]2C(=O)NC2(CC(C)(C)C2)C(=O)N(C)[C@@H](C2CCCC2)C(=O)N(C)[C@H](C(=O)N(C)CCC)CC(=O)N1C [PP2076] | 0.39 nM | A (a compound having 10 or more and less than 20 is denoted as A) | A (a compound having 10 or more and less than 20 is denoted as A) |
| CCCN(C)C(=O)[C@@H]1CC(=O)N(C)[C@@H](C(C)C)C(=O)N[C@@H]([C@@H](C)CC)C(=O)N(C)CC(=O)N(C)[C@H]2C/C=C\CCN(C2=O)[C@@H](Cc2ccc(C(F)(F)F)cc2)C(=O)N(C)CC(=O)N[C@@H](CCc2cc(F)c(C(F)(F)F)c(F)c2)C(=O)N2C[C@@H](C)C[C@H]2C(=O)NC2(CCC2)C(=O)N(C)[C@@H](C2CCCC2)C(=O)N1C [PP2079] | 0.29 nM | A (a compound having 10 or more and less than 20 is denoted as A) | A (a compound having 10 or more and less than 20 is denoted as A) |
| CC[C@H](C)[C@@H]1NC(=O)[C@H](C2CC2)N(C)C(=O)C[C@@H](C(=O)N(C)CC)N(C)C(=O)[C@H](C2CCCC2)N(C)C(=O)C2(CCC2)NC(=O)[C@@H]2C[C@H](C)CN2C(=O)[C@H](CCc2cc(F)c(C(F)(F)F)c(F)c2)NC(=O)CN(C)C(=O)[C@H](Cc2ccc(C(F)(F)F)cc2)N2CC/C=C\C[C@@H](C2=O)N(C)C(=O)CN(C)C1=O [PP2080] | 0.093 nM | A (a compound having 10 or more and less than 20 is denoted as A) | A (a compound having 10 or more and less than 20 is denoted as A) |

Continued, in another order:

| Kd [1] | SMILES | HRAS/KRAS (ratio of KD value for HRAS to KD value for KRAS) [2] | NRAS/KRAS (ratio of KD value for NRAS to KD value for KRAS) [3] |
| --- | --- | --- | --- |
| 0.12 nM | CCCN(C)C(=O)[C@@H]1CC(=O)N(C)[C@@H](C2CC2)C(=O)N[C@@H]([C@@H](C)CC)C(=O)N(C)CC(=O)N(C)[C@H]2C/C=C\CCN(C2=O)[C@@H](Cc2ccc(C(F)(F)F)cc2)C(=O)N(C)CC(=O)N[C@@H](CCc2cc(F)c(C(F)(F)F)c(F)c2)C(=O)N2C[C@@H](C)C[C@H]2C(=O)NC2(CCC2)C(=O)N(C)[C@@H](C2CCCC2)C(=O)N1C [PP2081] | A (a compound having 10 or more and less than 20 is denoted as A) | A (a compound having 10 or more and less than 20 is denoted as A) |
| 0.22 nM | CCCN(C)C(=O)[C@@H]1CC(=O)N(C)[C@@H](C2CCC2)C(=O)N[C@@H]([C@@H](C)CC)C(=O)N(C)CC(=O)N(C)[C@H]2C/C=C\CCN(C2=O)[C@@H](Cc2ccc(C(F)(F)F)cc2)C(=O)N(C)CC(=O)N[C@@H](CCc2cc(F)c(C(F)(F)F)c(F)c2)C(=O)N2C[C@@H](C)C[C@H]2C(=O)NC2(CCC2)C(=O)N(C)[C@@H](C2CCCC2)C(=O)N1C [PP2083] | B (a compound having 3 or more and less than 10 is denoted as B) | A (a compound having 10 or more and less than 20 is denoted as A) |
| 0.15 nM | C#CCN1CC(=O)N(C)[C@H]2C/C=C\CCN(C2=O)[C@@H](Cc2ccc(C(F)(F)F)cc2)C(=O)N(C)CC(=O)N[C@@H](CCc2cc(F)c(C(F)(F)F)c(F)c2)C(=O)N2C[C@H](OCC)C[C@H]2C(=O)NC2(CC(C)(C)C2)C(=O)N(C)[C@@H](C2CCCC2)C(=O)N(C)[C@H](C(=O)N(C)C)CC(=O)N(C)[C@@H](CC)C(=O)N[C@@H]([C@@H](C)CC)C1=O [PP2087] | A (a compound having 10 or more and less than 20 is denoted as A) | A (a compound having 10 or more and less than 20 is denoted as A) |
| 0.33 nM | CCC[C@H]1C(=O)N[C@@H]([C@@H](C)CC)C(=O)N(C2CC2)CC(=O)N(C)[C@H]2C/C=C\CCN(C2=O)[C@@H](Cc2ccc(C)cc2)C(=O)N(C)CC(=O)N[C@@H](CCc2cc(F)c(C(F)(F)F)c(F)c2)C(=O)N2C[C@H](OCC)C[C@H]2C(=O)NC2(CC(C)(C)C2)C(=O)N(C)[C@@H](C2CCCC2)C(=O)N(C)[C@H](C(=O)N(C)C)CC(=O)N1C [PP2093, (2S,8S,12R,14S,20S,23S,27S,30S,36S,38Z)-20-cyclopentyl-32-cyclopropyl-8-[2-[3,5-difluoro-4-(trifluoromethyl)phenyl]ethyl]-12-ethoxy-N,N,3′,3′,4,19,22,26,35-nonamethyl-30-[(1S)-1-methylpropyl]-3,6,9,15,18,21,25,28,31,34,42-undecaoxo-27-propyl-2-(p-tolylmethyl)spiro[1,4,7,10,16,19,22,26,29,32,35-undecazatricyclo[34.5.1.0^10,14]dotetracont-38-ene-17,1′-cyclobutane]-23-carboxamide] | A (a compound having 10 or more and less than 20 is denoted as A) | A (a compound having 10 or more and less than 20 is denoted as A) |
| 0.29 nM | C=CCN1CC(=O)N(C)[C@H]2C/C=C\CCN(C2=O)[C@@H](Cc2ccc(C)cc2)C(=O)N(C)CC(=O)N[C@@H](CCc2cc(F)c(C(F)(F)F)c(F)c2)C(=O)N2C[C@H](OCC)C[C@H]2C(=O)NC2(CC(C)(C)C2)C(=O)N(C)[C@@H](C2CCCC2)C(=O)N(C)[C@H](C(=O)N(C)C)CC(=O)N(C)[C@@H](CCC)C(=O)N[C@@H]([C@@H](C)CC)C1=O [PP2094] | A (a compound having 10 or more and less than 20 is denoted as A) | A (a compound having 10 or more and less than 20 is denoted as A) |
